In patent US20100291074A1, “CYCLOPHILIN D-AMYLOID BETA INTERACTION POTENTIATES MITOCHONDRIAL DYSFUNCTION IN A TRANSGENIC MOUSE MODEL OF ALZHEIMER'S DISEASE” (COLUMBIA UNIVERSITY IN THE CITY OF NEW YORK, priority 2007, published 2010):
“Also recorded” adds a separate entry of the source.

System: cultured cortical neurons
Assay: Mitochondrial membrane potential (TMRM) in cultured neurons
Assay type: cell-based, mice
Conditions: for TMRM-positive neurons after H2O2: H2O2 one hour, FACS
Protocol: FIGS. 5. […] (A) Western blot of cultured cortical neuron derived from nonTg and CypD-deficient mice was performed by specific α-CypD IgG. […] (F-G) FACS analysis of TMRM staining in nonTg and CypD−/− neurons treated with increasing concentrations of H2O2 for one hour. (G) Analyses of % TMRM positive neurons combined 3-4 independent experiments. […] (H-I) TMRM staining in H2O2-treated nonTg and CypD−/− neurons as shown by confocal microscopy in live cells. (J-L). FACS analysis of propidium iodide (PI) staining in nonTg and CypD−/−neurons treated with H2O2 for one hour. Percentages of PI-positive and -negative cells were shown as red line and black line, respectively.
Mitochondrial membrane potential […] was determined in primary cultured neuron derived from nonTg and Tg CypD−/− mice.
Murine cortical neurons were cultured as described. Briefly, murine cortex were dissected from Day 1 pups of nonTg and Tg CypD−/− mice, dissociated with 0.05% trypsin, and triturated in ice-cold Neurobasal A medium. Cells were then centrifuged at 200 g for 5 min to get rid of the debris. The resulting pellets were resuspended in culture medium (neurobasal A with 2% B27 supplement, 0.5 mM L-glutamine, 50 U/ml penicillin, and 50 μg/ml streptomycin) and plated onto poly-L-lysine-coated culture plates with an appropriate density. Aβ or H2O2 was added to the cultured medium at day 5 cultured neurons.
Primary cultured neurons derived from nonTg and CypD-deficient mice were incubated with 2 μM oligomeric Aβ, or H2O2 for various time points. The mitochondrial ROS was detected with 1 μM MitoSox staining The cytochrome c release was assessed by ELISA (Active Motif). Mitochondrial membrane potential was determined by TMRM labeling and analyzed by flow cytometry as described above. Apoptosis was assessed by TUNEL assay using in situ cell death detection kit (Roche).

Row | Structure (SMILES) | TMRM-positive neurons after H2O2 (CypD−/− neurons, from 73% before) [%] | TMRM-positive neurons after H2O2 (nonTg neurons, from 73.8% before) [%] | mitochondrial membrane potential ΔΨm (TMRM) (FCCP (1 μM), nonTg and CypD−/− neurons)
1 | OO [H2O2] | 32 | 5.5 | 
2 | N#CC(C#N)=NNc1ccc(OC(F)(F)F)cc1 [FCCP, carbonyl cyanide p-(trifluoromethoxy) phenylhydrazone] |  |  | able to dissipate mitochondria ΔΨ; also recorded: dissipated membrane ΔΨm
